From patent US4565816A, “Piperazine derivatives and pharmaceutical composition containing them” (Sandoz Ltd., priority 1982, dated 1986)

Columns and labels:
[1] = system: spontaneously beating guinea-pig atria; test: decrease of heart rate of spontaneously beating guinea-pig atria in vitro; conditions: Cavia porcellus, read-out: EC25 (concentration decreasing the rate of the spontaneously beating atria by 25%)
Protocol: For example, in guinea-pig atria in vitro [method of R. P. Hof and G. Scholtysik, J. of Cardiovascular Pharmacology 5, 176-183 (1983)] a decrease of the heart rate of spontaneously beating atria is observed at a bath concentration of from about 1 μM to about 100 μM. The concentration decreasing the rate of the spontaneously beating atria by 25% (EC25 values) for some compounds of the present invention and the standard Alinidin are given in the following Table: […]

[2] = system: mice; test: inhibition of locomotion in mice; format: in vivo, mouse (male, OF-1); conditions: Mus musculus, po, 1 hour after administration, minimum dose at which significant inhibition was observed, read-out: Locomotor inhibition EDmin
Protocol: In particular, the compounds of formulae I and VII are useful as neuroleptic agents in the treatment of e.g. psychotic disorders such as schizophrenia, as indicated in standard tests, e.g. by an inhibition of locomotion in mice. In this test groups of 3 male mice (18-24 g, OF-1, Sandoz Basle) received 3.2, 10, 32, 100 and […]. of the test drug. 1 hour after drug administration the mice were observed individually and their locomotion compared with that of control. The locomotion of the animals was observed and the EDmin (the minimum dose at which significant inhibition was observed) determined.

[3] = target: T1, ^3 H-Spiperone binding sites (Bos taurus, UniProt P20288); test: ^3 H-Spiperone binding (calf brain striatal tissue); conditions: for IC50: calf brain striatal membranes, 0.1 nM ^3 H-Spiperone, 5×10^-7 M Cinanserin, 40 minutes at room temperature, read-out: Receptor binding IC50 ^3 H-Spiperone; for effect in the ^3 H-Spiperone binding test compared with Clozapine: in words, relative to Clozapine
T1 construct: fresh calf brain striatal tissue was homogenized; from tissue; host or cells: calf brain striatum, membranes
Protocol: The compounds of formulae I and VII bind further on ^3 H-Spiperone binding sites in the brain [modified method of J. Leysen et al., Biochem. Pharmac. […] The test was performed as follows: fresh calf brain striatal tissue was homogenized in the 25 fold volume of Tris buffer (pH 7.4, 50 mM, 120 mM sodium chloride) and centrifuged. The pellets were suspended in the 22 fold volume of Tris buffer, incubated for 15 minutes at 37° C. and centrifuged. The pellets were suspended in the 300 fold volume of Tris buffer. […] After incubation for 40 minutes at room temperature, the assay mixtures were raidly filtered through Whatman GF/B filter, the filters washed twice with 5 ml of ice cold Tris buffer and scintillation-counted.

[4] = system: female normotonic rats; test: blood pressure / heart rate in anaesthetized normotonic rats; format: in vivo, rat (female, Sprague-Dawley); conditions: Rattus norvegicus, iv; urethane-anaesthetized rats, cumulative i.v. doses 3 to 1443 μg/kg, interpolated; read-out: ED75 (dose required to reduce the blood pressure on the heart rate to 75% of pretreatment values)
Protocol: In another test female normotonic rats (200-350 g, Sprague-Dawley, Suddeutsche Tierfarm, Tuttlingen, FRG) were anaesthetized with urethane (1.5-1.75 g/kg i.p. in 2 portions) and a tracheal cannula was inserted. Blood pressure and heart rate were recorded from the carotid artery by conventional methods. Test drug were administered by the jugular or the femoral vein. Body temperature was maintained at 37° C. by means of a temperature regulator (Alfos MK-4) triggered by a thermistor on the animal. After adaptation, increasing doses of the test drug were injected i.v. to give the following cumulative doses: 3, 13, 43, 143, […] and 1443 μg/kg. ED 75% is the dose required to reduce the blood pressure on the heart rate to 75% of pretreatment values. It was obtained through interpolation. The ED75 of the Example 4 compound is 6 μg, of Example 5s compound 3 μg, of Example 8 g 4 μg and of Guanfacine 57 μg.

[5] = target: α1-receptors; test: ^3 H-Prazosin binding assay for α1-receptors (calf brain cortex); conditions: calf brain cortex membranes, 0.3 nM ^3 H-Prazosin, pH 7.7, 40 min room temperature; read-out: IC50, inhibition of specific ^3 H-Prazosin binding
Protocol: The compounds of formulae I and VII are furthermore useful as anti-hypertensive agents, as indicated in standard tests, for example in the ^3 H-Prazosin binding assay for α1 -receptors [modified method of Greengrass P., et al., Eur. J. Pharmac. 55, 323-326 (1979)]. The test was performed as follows:
Fresh calf brain cortex tissue is homogenized in a 20 fold volume of Tris-HCl buffer (50 mM, pH 7.7), using a Polytron PT 20, and centrifuged at 30'000 xg for 25 min. The pellets are resuspended in a 13 fold volume of the same buffer, incubated for 15 min at 37° C., and recentrifuged at 50'000 xg for 11 min. The pellets of this centrifugation are frozen at -20° C. and resuspended in a 60 fold volume of the same buffer as above before use for the binding experiment. The composition of the assay mixtures (total volume=2 ml) is as follows: 50 mM Tris-HCl pH 7.7, membranes corresponding to 30 mg of original tissue weight, and 0.3 nM ^3 H-Prazosin. The assays for the definition of nonspecific binding additionally contain phentolamine at a concentration of 10 μM. To assess the potency of drugs in inhibiting specific ^3 H-Prazosin binding (difference between total and nonspecific binding), the test compounds are added to give 5 to 9 different concentrations between 1 nM and 10 μM, each in duplicate. After incubation for 40 min at room temperature, the assay mixtures are rapidly filtered through Whatman GF/B filters and washed twice with 5 ml of ice cold Tris buffer. The radioactivity of the filters is estimated by scintillation counting.

T1 sequence (P20288 whole entry): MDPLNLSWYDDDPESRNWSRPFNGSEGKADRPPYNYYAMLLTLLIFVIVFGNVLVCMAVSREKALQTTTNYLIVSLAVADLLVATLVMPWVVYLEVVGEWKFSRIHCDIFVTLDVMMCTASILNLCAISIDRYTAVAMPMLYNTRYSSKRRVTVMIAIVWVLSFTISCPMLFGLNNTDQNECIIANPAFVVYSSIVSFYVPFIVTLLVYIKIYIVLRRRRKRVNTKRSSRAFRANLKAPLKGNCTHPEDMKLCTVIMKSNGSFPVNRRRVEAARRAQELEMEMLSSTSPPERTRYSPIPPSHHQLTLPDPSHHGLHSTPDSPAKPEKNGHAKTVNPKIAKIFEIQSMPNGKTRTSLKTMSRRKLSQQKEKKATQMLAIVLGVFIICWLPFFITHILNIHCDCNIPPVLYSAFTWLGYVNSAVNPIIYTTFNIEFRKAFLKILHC

IC50 [3] | Compound | minimal effective dose [2] | other results
4600 nM | CC(=O)Nc1ccc(N2CCN(CCCC(=O)c3ccc(F)cc3)CC2)nc1NC(C)=O [Example 5c] | 1 mg/kg | –
121 nM | Cc1nc2cnc(N3CCN(CCCC(=O)c4ccc(F)cc4)CC3)cc2nc1C [Example 8c] | 10 mg/kg | –

The remaining lines, values behind:

Compound | IC50 [3] | minimal effective dose [2] | other results
C=CCN(C1=NCCN1)c1c(Cl)cccc1Cl [Alinidin, reference compound] | – | – | EC25 [1]: 6500 nM
Fc1ccc(OCCCN2CCN(c3cc4nccnc4cn3)CC2)cc1 [Example 8g] | – | – | ED75 [4]: 0.004 mg/kg; EC25 [1]: 2150 nM
CC(=O)Nc1cnc(N2CCN(CCCC(=O)c3ccc(F)cc3)CC2)cc1NC(C)=O [Example 4, 4-[4-(4,5-Diacetylamino-2-pyridinyl)-1-piperazinyl]-1-(4-fluorophenyl)-1-butanone] | – | – | IC50 [5]: < 1 nM; ED75 [4]: 0.006 mg/kg
Cc1nc2ccc(N3CCN(CCCC(=O)c4ccc(F)cc4)CC3)nc2n1C [Example 3d] | – | – | IC50 [5]: 2.2 nM
O=C(CCCN1CCN(c2cc3[nH]cnc3cn2)CC1)c1ccc(F)cc1 [Example 3r] | 441 nM | ≤ 3.2 mg/kg | –
N=C(N)NC(=O)Cc1c(Cl)cccc1Cl [Guanfacine, reference compound] | – | – | IC50 [5]: 3700 nM; ED75 [4]: 0.057 mg/kg
O=C(CCCN1CCN(c2ccc3[nH]cnc3n2)CC1)c1ccc(F)cc1 [Example 1, 1-(4-Fluorophenyl)-4-[4-(1H-imidazo[4,5-b]pyridin-5-yl)-1-piperazinyl]-1-butanone] | 306 nM | 1 mg/kg | effect in the ^3 H-Spiperone binding test compared with Clozapine [3]: stronger effects; EC25 [1]: 7800 nM
CC(=O)Nc1cnc(N2CCN(CCCOc3ccc(F)cc3)CC2)cc1NC(C)=O [Example 5s] | – | – | ED75 [4]: 0.003 mg/kg
CN1CCN(C2=Nc3cc(Cl)ccc3Nc3ccccc32)CC1 [Clozapine, reference compound] | – | 3.2 mg/kg | –
CCc1nc2ccc(N3CCN(CCCC(=O)c4ccc(F)cc4)CC3)nc2[nH]1 [Example 3i] | 246 nM | 3.2 mg/kg | effect in the ^3 H-Spiperone binding test compared with Clozapine [3]: stronger effects
Cc1nc2ccc(N3CCN(CCCC(=O)c4ccc(F)cc4)CC3)nc2nc1C [Example 7, 4-[4-(2,3-Dimethyl-pyrido[2,3-b]pyrazin-6-yl)-1-piperazinyl]-1-(4-fluorophenyl)-1-butanone] | 205 nM | 10 mg/kg | –
O=C(CCCN1CCN(c2cc3nccnc3cn2)CC1)c1ccc(F)cc1 [Example 8d] | – | – | EC25 [1]: 4000 nM
